Results reported in PMC6207715, “Determination of extended substrate specificity of the MALT1 as a strategy for the design of potent substrates and activity-based probes” (Scientific Reports, 2018).
Read-outs that look alike come from different tables or passages of the source. Non-standard residues stand in square brackets, D forms with d. *: point of attachment. ACC = NC(=O)Cc1cc(=O)oc2cc(N*)ccc12; Abu = CC[C@H](N)C(=O)O

Legend:
Assay type in all cases: biochemical
MALT1 [1] = biological target: T1, MALT1 (Homo sapiens, UniProt Q9UDY8); assay: Kinetic assay of ACC fluorogenic substrates (kcat, Km, kcat/Km); conditions: 37 °C; 50 mM HEPES, 100 mM NaCl, 0.9 M sodium citrate, 10 mM DTT, pH 7.5; substrate 3.90-150 μM; ACC fluorescence 355/460 nm; average of three measurements
T1 sequence (Q9UDY8 1-824): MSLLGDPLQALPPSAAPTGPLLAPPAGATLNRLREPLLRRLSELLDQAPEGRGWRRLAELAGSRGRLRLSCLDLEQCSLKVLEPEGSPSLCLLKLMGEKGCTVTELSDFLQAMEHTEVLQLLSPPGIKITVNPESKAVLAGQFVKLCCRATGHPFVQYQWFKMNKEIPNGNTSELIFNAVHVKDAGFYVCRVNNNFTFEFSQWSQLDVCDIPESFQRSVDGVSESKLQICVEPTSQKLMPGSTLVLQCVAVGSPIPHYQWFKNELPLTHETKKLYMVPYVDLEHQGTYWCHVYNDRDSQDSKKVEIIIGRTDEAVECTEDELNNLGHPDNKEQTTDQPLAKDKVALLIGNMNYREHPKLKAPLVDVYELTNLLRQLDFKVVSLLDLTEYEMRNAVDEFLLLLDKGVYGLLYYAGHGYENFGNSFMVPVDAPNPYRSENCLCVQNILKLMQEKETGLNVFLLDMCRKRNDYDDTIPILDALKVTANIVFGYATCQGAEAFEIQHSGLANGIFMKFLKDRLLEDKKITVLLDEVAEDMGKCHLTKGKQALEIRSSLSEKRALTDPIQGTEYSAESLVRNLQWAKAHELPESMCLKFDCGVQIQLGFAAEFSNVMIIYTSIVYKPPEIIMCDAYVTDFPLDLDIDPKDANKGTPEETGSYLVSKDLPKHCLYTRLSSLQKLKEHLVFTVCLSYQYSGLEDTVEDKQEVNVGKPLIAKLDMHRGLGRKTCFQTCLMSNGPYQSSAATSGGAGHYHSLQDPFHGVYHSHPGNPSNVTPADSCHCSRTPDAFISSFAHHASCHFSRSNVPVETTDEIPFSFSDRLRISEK
Procedure: Figure 2 MALT1 substrate activity. Panel a. kcat/Km values for MALT1 substrates compared with that of the reference substrate (ALVSR). MALT1 was incubated at 37 °C for 30 minutes and added to the wells containing the substrate at varying concentrations. Relative fluorescence units were measured over time at excitation/emission wavelengths of 355/460 nm for at least 10 minutes. The data represent averages of three separate measurements, and error bars represent standard deviations. Panel b. Structure of our best (lower panel) and the reference (upper panel) MALT1 fluorogenic substrate.
(§1) All kinetic assays were performed with a Spectra Max Gemini XPS spectrofluorimeter (Molecular Devices) and 96-well Corning plates. The measurement characteristics were as follows: 37 °C, excitation/emission wavelength of 355/460 nm, cutoff of 455 nm, and varying concentrations of substrates and enzyme. The assay buffer was prepared at 23 °C and contained 50 mM HEPES (2-[4-(2-hydroxyethyl)piperazin-1-yl]ethanesulfonic acid), 100 mM NaCl, 0.9 M sodium citrate and 10 mM dithiothreitol (DTT) (pH 7.5). MALT1^FL or MALT1^CD were preincubated for 30 minutes at 37 °C before being added to wells containing substrate. Next, the increase in fluorescence was recorded over the time. Only the linear portions of the curves were used for calculations. The kcat and Km values were calculated using GraphPad Prism and Microsoft Excel software. All measurements were repeated three times, and the data presented are averages of these replicates. […]
was carried out after each coupling and Fmoc deprotection step. The N terminus was protected with an acetyl group using 5 eq AcOH, 5 eq HBTU, and 5 eq DIPEA in DMF.
After solvent removal, the resin was washed six times with DMF in order to remove excess reagents, three times with DCM, and three times with MeOH and then dried over P2O5 and cleaved from the resin with a TFA/TIPS/H2O mixture (%, v/v/v, 95:2.5:2.5).
The crude product was purified by HPLC and lyophilized. The purity of each substrate was confirmed by analytical HPLC, and each substrate was analyzed using HRMS.
(§2) Substrates were dissolved in peptide-grade DMSO to a concentration of 20 mM and stored at -80°C until use.
(§3) Calculation of kcat, Km and kcat/Km values
(§4) Kinetic parameters were calculated under the same conditions as the library with slight modification. The total reaction volume in each well was 100 μL. The substrate and enzyme concentrations used ranged from 3.90 μM to 150 μM and 40 μM, respectively.
(§5) The increase in relative fluorescence units was monitored for 20-30 minutes, and only the linear parts of the curves were used to determine the rate of the reaction. The kcat and Km values were calculated using GraphPad Prism software. All measurements were repeated three times using the appropriate concentration of the enzyme, and the data presented are averages of these repetitions.

MALT1^CD [2] = biological target: T2, MALT1^CD (Homo sapiens, UniProt Q9UDY8); assay: MALT1 labeling with PKG105, SDS-PAGE fluorescence scan; conditions: 100 nM enzyme; probe 500, 250, 125 nM; 30 minutes, 37 °C; gel scan 700 nm
T2 construct: the MALT1 catalytic domain (MALT1^CD)
T2 sequence (Q9UDY8 348-562 limits assumed): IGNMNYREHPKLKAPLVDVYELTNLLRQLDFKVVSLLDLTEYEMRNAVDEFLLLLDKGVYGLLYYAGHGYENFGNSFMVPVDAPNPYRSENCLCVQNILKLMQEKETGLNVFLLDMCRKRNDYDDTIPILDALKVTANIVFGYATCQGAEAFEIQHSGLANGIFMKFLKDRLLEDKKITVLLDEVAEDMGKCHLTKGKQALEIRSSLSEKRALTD
Procedure: (§6) MALT1^FL, MALT1^CD or MALT1^C/A at 100 nM were incubated with PKG105 at three different concentrations: 500 nM, 250 nM and 125 nM for 30 minutes at 37 °C. As a control, MALT1^FL without the probe was incubated in the assay buffer. Samples were denatured in 3 × SDS-loading buffer for 5 minutes at 95 °C. SDS-PAGE was performed under reducing conditions for 37 minutes at 165 V. The fluorescence signal in the gel was measured using a Li-Cor (Odyssey®) instrument at a wavelength of 700 nm.

MALT1^FL [3] = biological target: T3, MALT1^FL (Homo sapiens, UniProt Q9UDY8); assay: as above; conditions: 100 nM enzyme; probe 500, 250, 125 nM; 30 minutes, 37 °C; gel scan 700 nm
T3 construct: treating full-length MALT1 (MALT1^FL), the MALT1 catalytic domain (MALT1^CD)
T3 sequence (Q9UDY8 1-824): T1 sequence (Q9UDY8 1-824)
Procedure: as §6

MALT1^C/A = assay: as above; conditions: 100 nM enzyme; probe 500, 250, 125 nM; 30 minutes, 37 °C; gel scan 700 nm
Procedure: as §6

[4] = system: MALT1 in RAW 264.7 cell lysates; assay: Labeling of active MALT1 in RAW 264.7 cell lysates; conditions: RAW 264.7 lysates; probe 8 to 500 nM; 30 minutes, 37 °C; gel scan 700 nm
Procedure: Figure 3 Probe to detect active MALT1. Panel a. Structure of the MALT1 probe (PKG105). Panel b. RAW 264.7 cell lysates were incubated with PKG105 at various concentrations. As a control, lysates were pretreated with mepazine, followed by incubation with probe. Lysates that were not treated with mepazine were also used. SDS-PAGE was performed at 165 V. Fluorescence was scanned using the 700 nm channel (LI-COR). Gels are representative of at least two replicates. TEXT PRINTED IN THE PICTURE: (a) PKG105: kobs/I = 92,000 M^-1s^-1
Twenty-five microliters of RAW 264.7 cell lysates (from 5 * 10^6 cells/mL) were incubated with PKG105 at concentrations ranging from 8 to 500 nM. As controls, cells that were not incubated with probe or cells that were pretreated with 1 µL of 10 mM mepazine were treated with 500 nM PKG105. The lysates were incubated with the probe for 30 minutes at 37 °C, followed by denaturation in 3 × SDS-loading buffer for 5 minutes at 95 °C. SDS-PAGE was performed under reducing conditions for 37 minutes at 165 V. The fluorescence signal in the gel was measured using a Li-Cor (Odyssey®) at a wavelength of 700 nm.

MALT1 [5] = biological target: T1, MALT1; assay: Inhibition kinetics of activity-based probe (kobs/I)
MALT1^CD [6] = biological target: T2, MALT1^CD; assay: Kinetic assay of IQF substrates, catalytic domain; conditions: IQF substrate, ACC/Lys(Dnp) pair; 37 °C, assay buffer pH 7.5; 355/460 nm; average of three
Procedure: as §1, §2, §3, §4, §5

MALT1^FL [7] = biological target: T3, MALT1^FL; assay: Kinetic assay of IQF substrates, full-length enzyme; conditions: IQF substrate, ACC/Lys(Dnp) pair; 37 °C, assay buffer pH 7.5; 355/460 nm; average of three
Procedure: as §1, §2, §3, §4, §5

Row | Substance | Km (MALT1 [1]) | kcat (MALT1 [1]) | kcat/Km, MALT1^CD (MALT1^CD [6]) | kcat/Km, MALT1^FL (MALT1^FL [7]) | other results
1 | Ac-[Abu]LVSR-{ACC} (SMILES CC[C@H](NC(C)=O)C(=O)N[C@@H](CC(C)C)C(=O)N[C@H](C(=O)N[C@@H](CO)C(=O)N[C@@H](CCCNC(=N)N)C(=O)Nc1ccc2c(CC(N)=O)cc(=O)oc2c1)C(C)C) [Ac-Abu-LVSR-ACC] | 22.15 ± 0.01 µM | 0.19 ± 0.0295 s⁻¹ |  |  | 
2 | Ac-[dA]LVSR-{ACC} (SMILES CC(=O)N[C@H](C)C(=O)N[C@@H](CC(C)C)C(=O)N[C@H](C(=O)N[C@@H](CO)C(=O)N[C@@H](CCCNC(=N)N)C(=O)Nc1ccc2c(CC(N)=O)cc(=O)oc2c1)C(C)C) [Ac-D-Ala-LVSR-ACC] | 24.4 ± 6.97 µM | 0.076 ± 0.034 s⁻¹ |  |  | 
3 | Ac-[dV]LVSR-{ACC} (SMILES CC(=O)N[C@@H](C(=O)N[C@@H](CC(C)C)C(=O)N[C@H](C(=O)N[C@@H](CO)C(=O)N[C@@H](CCCNC(=N)N)C(=O)Nc1ccc2c(CC(N)=O)cc(=O)oc2c1)C(C)C)C(C)C) [Ac-D-Val-LVSR-ACC] | 19.2 ± 2.5 µM | 0.15 ± 0.012 s⁻¹ |  |  | 
4 | Cy5-Phe(guan)-Leu-Val-Pro-Arg-AOMK [PKG105] |  |  |  |  | labeling of MALT1^CD by probe (MALT1^CD [2]): detected enzyme activity; labeling of MALT1^FL by probe (MALT1^FL [3]): detected enzyme activity; labeling of MALT1^C/A catalytic mutant by probe (MALT1^C/A): no labeling was observed; detection of active MALT1 in cell lysates by probe [4]: detected active MALT1; kobs/I (MALT1 [5]): 92,000 s^−1M^−1; kobs/I (MALT1 [5]; printed in Figure 3a): 92,000 M^-1s^-1; kobs/I relative to the best MALT1 inhibitor in the literature (MALT1 [5]; times higher than 9,300 s^−1M^−1): approximately 10 times
5 | H2N-ACC-Ahx-A-L-V-S-R–G-Abu-K(Dnp)G-OH [Substrate M2] |  |  | 2.6 * 10^3 ± 38 M^−1s^−1 | 5.5 * 10^3 ± 291 M^−1s^−1 | 
6 | H2N-ACC-Ahx-A-L-V-S-R–G-Nva-K(Dnp)G-OH [Substrate M1] |  |  | 3.5 * 10^3 ± 165 M^−1s^−1 | 4.8 * 10^3 ± 362 M^−1s^−1 | 
7 | H2N-ACC-Ahx-A-L-V-S-R–G-Thr-K(Dnp)G-OH [Substrate M3] |  |  | 2.8 * 10^3 ± 101 M^−1s^−1 | 6.3 * 10^3 ± 311 M^−1s^−1 | 
